In publication PMC11313193, “Which Constituents Determine the Antioxidant Activity and Cytotoxicity of Garlic? Role of Organosulfur Compounds and Phenolics” (International Journal of Molecular Sciences, 2024):
Values after ≈ are worked out from the molar mass of the structure shown. Read-outs that look alike come from different tables or passages of the source.

Columns and labels:
[1] = test system: NUGC-2 gastric cancer cell line; parameters: method as in PMID 2298289; conditions: range given for four gastric cancer cell lines; read-out: IC50 NUGC-2 gastric cancer cells; cited from earlier work
[2] = test system: A549 human adenocarcinomic alveolar basal epithelial cells; parameters: method as in PMID 14688022; conditions: cited from earlier work
[3] = test system: PEO1 ovarian cancer cells; assay: Cytotoxicity (Neutral Red), PEO1 cells; format: cell-based, human; conditions: for Concentration at which viability of PEO1 cells was lowered: p < 0.05; for IC50: Homo sapiens, read-out: IC50 PEO1
Experimental: (§1) The PEO1 cells, SKOV-3 cells, and MRC-5 cells were grown at 37 °C and 5% CO2 in RPMI + GlutaMAX medium, McCoy’s 5A medium, and the DMEM + GlutaMAX medium, respectively. The media were supplemented with 10% heat-inactivated fetal calf serum and penicillin/streptomycin. The cell viability was evaluated using the Trypan Blue exclusion test.
(§2) In the cytotoxicity experiments, cells were grown in wells of sterile 96-well plates. The seeding density was 1 × 10^4 for SKOV-3 and MRC-5 cells and 1.5 × 10^4 for PEO1 cells. The cells were allowed to grow in the incubator for 24 h. Then, the medium was removed and new medium with an examined compound was added. The stock solutions of the compounds studied diluted with the appropriate cell medium were filtered before the addition to the cells using 0.22 µm filters. No more than 0.02% of DMSO was present in the media, and it had no discernible impact on the treated cells. Cells not exposed to any compound served as a control. After another 24 h incubation, the medium was gently aspirated, and the wells were added with 2% sterile Neutral Red solution (100 µL). The plates were then incubated (37 °C, 5% CO2) for one hour. The Neutral Red solution was aspirated, and the wells were washed two times with warm (37 °C) PBS. Subsequently, 100 µL of a permeabilization mixture (water/ethanol/glacial acetic acid, 50/49/1, v/v/v) was introduced to each well. The plates were shaken at 700 rpm for 20 min and absorbance was read at a wavelength of 540 nm against 620 nm.

[4] = test system: colorectal cancer CACO-2 cells; parameters: method as in PMID 25829782; conditions: cited from earlier work
[5] = test system: HGC-27 gastric cancer cell line; parameters: method as in PMID 2298289; conditions: range given for four gastric cancer cell lines; read-out: IC50 HGC-27 gastric cancer cells; cited from earlier work
MRC-5 fibroblasts = assay: Cytotoxicity (Neutral Red), MRC-5 fibroblasts; format: cell-based, human; conditions: for IC50: Homo sapiens, read-out: IC50 MRC-5; for Concentration at which viability of MRC-5 cells was lowered: p < 0.05
Experimental: as §1, §2

[6] = Ferric reducing antioxidant power (FRAP) assay; conditions: 30 min at ambient temperature, pH 3.6, absorbance at 593 nm
Experimental: The method proposed by Benzie and Strain [91] was employed with a slight modification. Briefly, increasing volumes of solutions of the studied compounds were added to wells of a 96-well microplate prefilled with 200 μL of the working solution composed of 0.3 M acetate buffer, pH 3.6 (10 volumes), 10 mM 2,4,6-tris(2-pyridyl)-s-triazine (TPTZ), in 40 mM HCl (1 volume) and 20 mM FeCl3 (1 volume), was prepared immediately before use. After 30 min incubation at ambient temperature and the absorbance of the Fe^2+-TPTZ complex was read at 593 nm.
(§3) All assays were standardized with respect to Trolox. The antioxidant activity was calculated in each case as a ratio of the slope of the dependence of absorbance change on the concentration of a studied compound to the slope of the dependence of absorbance change of standard samples concerning Trolox on the concentration of Trolox. Antioxidant activities were expressed in moles of Trolox equivalents (TE)/mol of a studied compound, as described previously.

[7] = DPPH^● decolorization assay; conditions: 30 min at ambient temperature in the dark, absorbance at 517 nm
Experimental: The assay was performed as described in a previous article. Briefly, increasing volumes of solutions of the studied compounds were introduced to wells of a 96-well microplate, each with 200 μL of 0.3 mM DPPH^● solution in methanol. The reaction was allowed to proceed for 30 min at ambient temperature in the dark, and absorbance at 517 nm was read. The absorbance decrease was a measure of the antioxidant activity.
as §3

[8] = ABTS^● decolorization assay; conditions: 30 min incubation at room temperature, absorbance at 734 nm
Experimental: A modification of the ABTS^● decolorization assay was employed. Briefly, various volumes of solutions of the studied compounds were introduced to wells of a 96-well microplate, each prefilled 200 μL of ABTS^● solution. […] The drop in absorbance after 30 min incubation at room temperature was read as a measure of the antioxidant activity.
as §3

[9] = test system: SKOV-3 ovarian cancer cells; assay: Cytotoxicity (Neutral Red), SKOV-3 cells; format: cell-based, human; conditions: for Concentration at which viability of SKOV-3 cells was lowered: p < 0.05; for IC50: Homo sapiens, read-out: IC50 SKOV-3
Experimental: as §1, §2

MCF-7 cells = test system: MCF-7 cells; parameters: method as in PMID 24223637; conditions: 40 μg/mL (132 μM); cited from earlier work
[10] = test system: breast cancer HCC1937 cells; parameters: method as in PMID 16619521; conditions: 100 μM; cited from earlier work
[11] = test system: MKN-28 gastric cancer cell line; parameters: method as in PMID 2298289; conditions: range given for four gastric cancer cell lines; read-out: IC50 MKN-28 gastric cancer cells; cited from earlier work
[12] = test system: colorectal cancer SW-620 cells; parameters: method as in PMID 25829782; conditions: cited from earlier work
[13] = test system: MKN-7 gastric cancer cell line; parameters: method as in PMID 2298289; conditions: range given for four gastric cancer cell lines; read-out: IC50 MKN-7 gastric cancer cells; cited from earlier work
[14] = test system: LNCaP prostate cancer cells; parameters: method as in PMID 19589639; conditions: 48 h exposure, cited from earlier work
[15] = test system: P388-D1 mouse lymphoid cancer cells; parameters: method as in PMID 8593472; conditions: cited from earlier work
[16] = test system: PC-3 prostate cancer cells; parameters: method as in PMID 19589639; conditions: 48 h exposure, cited from earlier work
[17] = test system: HL-60RG human promyelocytic leukemia cells; parameters: method as in PMID 8593472; conditions: cited from earlier work
[18] = test system: KB human epidermoid carcinoma cells; parameters: method as in PMID 8593472; conditions: cited from earlier work
[19] = test system: HeLa cervical cancer cells; parameters: method as in PMID 24843386; conditions: range given for HeLa and HTB-35, converted; cited from earlier work
[20] = test system: PLC/PRF/5 human hepatoma cells; parameters: method as in PMID 8593472; conditions: cited from earlier work
[21] = test system: DUI45 prostate cancer cells; parameters: method as in PMID 19589639; conditions: 48 h exposure, cited from earlier work
[22] = test system: HTB-35 cervical cancer cells; parameters: method as in PMID 24843386; conditions: range given for HeLa and HTB-35, converted; cited from earlier work
[23] = test system: dRLh-84 rat hepatoma cells; parameters: method as in PMID 8593472; conditions: cited from earlier work
[24] = test system: HeLa human epithelial carcinoma cells; parameters: method as in PMID 8593472; conditions: cited from earlier work
MDA-MB-231 cells [25] = test system: MDA-MB-231 cells; parameters: method as in PMID 27177074; conditions: 100 μM; cited from earlier work
osteosarcoma MG63 cells = test system: osteosarcoma MG63 cells; parameters: method as in PMID 27158383; conditions: after 48 h; read-out: Concentration decreasing viability of MG63 cells to 50%; cited from earlier work
[26] = test system: PC-3 prostate cancer cells; parameters: method as in PMID 26124008; conditions: read-out: Concentration decreasing viability of PC-3 cells to 50%; cited from earlier work
osteosarcoma 143B cells = test system: osteosarcoma 143B cells; parameters: method as in PMID 27158383; conditions: after 48 h; read-out: Concentration decreasing viability of 143B cells to 50%; cited from earlier work
[27] = test system: LNCaP prostate cancer cells; parameters: method as in PMID 26124008; conditions: read-out: Concentration decreasing viability of LNCaP cells to 50%; cited from earlier work
[28] = test system: cervical cancer HeLa cells; parameters: method as in PMID 21199742; conditions: after 24 h exposure; read-out: Concentration decreasing the viability of HeLa cells by 50%; cited from earlier work
MDA-MB-231 cells [29] = test system: MDA-MB-231 cells; parameters: method as in PMID 29048370; conditions: read-out: Concentration decreasing the viability of MDA-MB-231 cells (by 50%); cited from earlier work
[30] = test system: HT-1080 fibrosarcoma cells; parameters: method as in PMID 21116690; conditions: read-out: Concentration decreasing the viability of HT-1080 cells (by 50%); cited from earlier work
[31] = PEO1, 24 h exposure, Neutral Red
[32] = SK-OV-3, 24 h exposure, Neutral Red

## O=c1c(O)c(-c2ccc(O)c(O)c2)oc2cc(O)cc(O)c12 [Quercetin]
[1]
  IC50: 32 to 55 µM
[2]
  IC50: ~40 µM
[3]; 24 h exposure
  Concentration at which viability of PEO1 cells was lowered: 75 to 200 µM
[3]; PEO1, 24 h
  IC50: 100 µM
[4]
  IC50: 35 µM
[5]
  IC50: 32 to 55 µM
MRC-5 fibroblasts; 24 h exposure
  Concentration range with no significant decrease in viability of MRC-5 cells: up to 200 µM
MRC-5 fibroblasts; MRC5, 24 h
  IC50: 111 µM
[6]
  Antioxidant activity, FRAP: 1.350 ± 0.201 mol Trolox equivalents (TE)/mol compound
[7]
  Antioxidant activity, DPPH^● Decolorization: 0.384 ± 0.040 mol Trolox equivalents (TE)/mol compound
[8]
  Antioxidant activity, ABTS^● Decolorization: 1.138 ± 0.029 mol Trolox equivalents (TE)/mol compound
[9]; 24 h exposure
  Concentration at which viability of SKOV-3 cells was lowered: 75 to 200 µM
[9]; SK-OV-3, 24 h
  IC50: 272 µM
MCF-7 cells
  Viability of MCF-7 cells (diminished to): ca. 70%
[10]
  Viability of HCC1937 cells (diminished to): ca. 40%
[11]
  IC50: 32 to 55 µM
[12]
  IC50: 20 µM
[13]
  IC50: 32 to 55 µM

## O=C(O)c1cc(O)c(O)c(O)c1 [Gallic acid, gallic acid]
[3]; 24 h exposure
  Concentration at which viability of PEO1 cells was lowered: 200 to 1000 µM
[3]; [31]
  IC50: 19 µM
[14]; converted
  IC50: 117 µM
[14]
  IC50 LNCaP prostate cancer cells: 21 µg/mL (≈ 123 µM)
MRC-5 fibroblasts; 24 h exposure
  Concentration at which viability of MRC-5 cells was lowered: 200 to 1000 µM
MRC-5 fibroblasts; MRC5, 24 h exposure, Neutral Red
  IC50: 243 µM
[15]
  IC50 P388-D1 cells: 4.8 µg/mL (≈ 28.2 µM)
[15]; converted from μg/mL
  IC50: 27 µM
[6]
  Antioxidant activity, FRAP: 0.332 ± 0.001 mol Trolox equivalents (TE)/mol compound
[16]; converted
  IC50: 89 µM
[16]
  IC50 PC-3 prostate cancer cells: 16 µg/mL (≈ 94.1 µM)
[7]
  Antioxidant activity, DPPH^● Decolorization: 0.178 ± 0.023 mol Trolox equivalents (TE)/mol compound
[17]
  IC50 HL-60RG cells: 5.4 µg/mL (≈ 31.7 µM)
[17]; converted from μg/mL
  IC50: 30 µM
[18]
  IC50 KB cells: 13.2 µg/mL (≈ 77.6 µM)
[18]; converted from μg/mL
  IC50: 73 µM
[19]
  IC50: 111 to 139 µM
[20]
  IC50 PLC/PRF/5 cells: 6.6 µg/mL (≈ 38.8 µM)
[20]; converted from μg/mL
  IC50: 37 µM
[21]; converted
  IC50: 89 µM
[21]
  IC50 DUI45 prostate cancer cells: 16 µg/mL (≈ 94.1 µM)
[8]
  Antioxidant activity, ABTS^● Decolorization: 0.972 ± 0.028 mol Trolox equivalents (TE)/mol compound
[22]
  IC50: 111 to 139 µM
[9]; 24 h exposure
  Concentration at which viability of SKOV-3 cells was lowered: 200 to 1000 µM
[9]; [32]
  IC50: 115 µM
[23]
  IC50 dRLh-84 cells: 6.2 µg/mL (≈ 36.4 µM)
[23]; converted from μg/mL
  IC50: 34 µM
[24]
  IC50 HeLa cells: 6.1 µg/mL (≈ 35.9 µM)
[24]; converted from μg/mL
  IC50: 34 µM

## COc1cc(/C=C/C(=O)O)ccc1O [Ferulic acid, ferulic acid]
[3]; 24 h exposure
  Concentration range with no significant decrease in viability of PEO1 cells: 0 to 1000 µM
MDA-MB-231 cells [25]
  Viability of MDA-MB-231 cells (decreased to): about 75%
Osteosarcoma MG63 cells
  IC50: 66 µM
MRC-5 fibroblasts; 24 h exposure
  Concentration range with no significant decrease in viability of MRC-5 cells: 0 to 1000 µM
[6]
  Antioxidant activity, FRAP: 0.554 ± 0.017 mol Trolox equivalents (TE)/mol compound
[26]
  IC50: 300 µM
[7]
  Antioxidant activity, DPPH^● Decolorization: 0.185 ± 0.070 mol Trolox equivalents (TE)/mol compound
[8]
  Antioxidant activity, ABTS^● Decolorization: 1.409 ± 0.096 mol Trolox equivalents (TE)/mol compound
[9]; 24 h exposure
  Concentration range with no significant decrease in viability of SKOV-3 cells: 0 to 1000 µM
Osteosarcoma 143B cells
  IC50: 60 µM
[27]
  IC50: 500 µM

## O=C(O)/C=C/c1ccc(O)c(O)c1 [Caffeic acid, caffeic acid]
[3]; 24 h exposure
  Concentration at which viability of PEO1 cells was lowered: 300 to 1000 µM
[3]; [31]
  IC50: 245 µM
[28]
  IC50: ~2000 µM
MDA-MB-231 cells [29]
  IC50: 151 µM
MRC-5 fibroblasts; 24 h exposure
  Concentration at which viability of MRC-5 cells was lowered: 1000 µM
[6]
  Antioxidant activity, FRAP: 0.019 ± 0.002 mol Trolox equivalents (TE)/mol compound
[7]
  Antioxidant activity, DPPH^● Decolorization: 0.001 ± 0.006 mol Trolox equivalents (TE)/mol compound
[30]
  IC50: 30 µM
[8]
  Antioxidant activity, ABTS^● Decolorization: 0.771 ± 0.066 mol Trolox equivalents (TE)/mol compound
[9]; 24 h exposure
  Concentration range with no significant decrease in viability of SKOV-3 cells: up to 1000 µM
[9]; [32]
  IC50: 1320 µM
